Drawing on US20230102554A1 (GB002, INC., priority 2019, published 2023), this text covers IC50 for 27 compounds.

Experiment [1] has as its target T1, Human PDGFRα, cytoplasmic domain (GST-PDGFRα) (Homo sapiens, UniProt P16234).
T1 construct: made in house
The experiment can be described thus: Human PDGFRα biochemical inhibition assay (off-chip Mobility Shift Assay).

Experiment [2] concerns the target T2, Human PDGFRβ, cytoplasmic domain (GST-PDGFRβ) (Homo sapiens, UniProt P09619).
T2 construct: made in house
The experiment can be described thus: Human PDGFRβ biochemical inhibition assay (off-chip Mobility Shift Assay). The method, boiled down:
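GST-tagged cytoplasmic domain (aa 557-1106) from baculovirus was incubated 1 h at room temperature with compound, CSKtide, ATP at Km and Mg²⁺ in HEPES buffer, pH 7.5. Phosphorylated and unphosphorylated peptide were separated by off-chip mobility shift, and the product ratio P/(P+S) gave percent inhibition.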

T1 sequence (P16234 550-1089 T674I): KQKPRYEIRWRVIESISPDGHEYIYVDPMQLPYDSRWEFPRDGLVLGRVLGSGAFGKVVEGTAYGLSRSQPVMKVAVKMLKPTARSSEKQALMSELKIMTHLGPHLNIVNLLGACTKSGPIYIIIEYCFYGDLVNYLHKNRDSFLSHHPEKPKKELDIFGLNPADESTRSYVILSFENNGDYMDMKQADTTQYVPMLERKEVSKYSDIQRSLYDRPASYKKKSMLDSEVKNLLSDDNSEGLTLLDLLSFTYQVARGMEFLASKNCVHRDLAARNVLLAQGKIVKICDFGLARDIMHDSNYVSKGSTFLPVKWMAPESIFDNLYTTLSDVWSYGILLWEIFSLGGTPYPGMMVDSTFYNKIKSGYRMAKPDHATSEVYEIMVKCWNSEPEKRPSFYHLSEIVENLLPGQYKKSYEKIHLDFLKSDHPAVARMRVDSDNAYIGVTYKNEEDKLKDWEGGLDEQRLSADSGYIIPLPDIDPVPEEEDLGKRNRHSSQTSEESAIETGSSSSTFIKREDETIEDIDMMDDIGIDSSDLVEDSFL
T2 sequence (P09619 with tags, fused parts or gaps): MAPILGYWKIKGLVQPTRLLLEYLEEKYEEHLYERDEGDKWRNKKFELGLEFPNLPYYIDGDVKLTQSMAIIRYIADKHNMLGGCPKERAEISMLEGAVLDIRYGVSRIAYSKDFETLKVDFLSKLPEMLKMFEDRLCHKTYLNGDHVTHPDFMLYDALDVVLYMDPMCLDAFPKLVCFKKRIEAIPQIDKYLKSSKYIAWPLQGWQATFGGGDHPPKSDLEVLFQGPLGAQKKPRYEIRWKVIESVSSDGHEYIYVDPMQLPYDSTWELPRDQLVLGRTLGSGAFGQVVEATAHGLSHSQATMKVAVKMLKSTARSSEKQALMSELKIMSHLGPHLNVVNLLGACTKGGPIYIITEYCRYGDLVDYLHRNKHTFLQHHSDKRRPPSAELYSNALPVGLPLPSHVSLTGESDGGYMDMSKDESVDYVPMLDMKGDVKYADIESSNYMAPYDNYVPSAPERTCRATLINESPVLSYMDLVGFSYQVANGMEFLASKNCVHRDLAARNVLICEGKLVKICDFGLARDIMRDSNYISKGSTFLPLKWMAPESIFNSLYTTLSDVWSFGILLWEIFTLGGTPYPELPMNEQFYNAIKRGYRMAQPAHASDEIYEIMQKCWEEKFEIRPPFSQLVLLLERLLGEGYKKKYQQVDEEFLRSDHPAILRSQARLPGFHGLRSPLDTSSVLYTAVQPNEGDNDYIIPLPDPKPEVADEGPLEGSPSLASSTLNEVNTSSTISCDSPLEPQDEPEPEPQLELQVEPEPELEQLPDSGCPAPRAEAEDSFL

For `CCn1cc2ncc(N[C@@H](C)c3cccc(NC(=O)Cc4cc(F)cc(Cl)c4)c3)nc2n1` [Compound 641, (S)-2-(3-chloro-5-fluorophenyl)-N-(3-(1-((2-ethyl-2H-pyrazolo[3,4-b]pyrazin-6-yl)amino)ethyl)phenyl)acetamide], the IC50 in experiment [1] and in experiment [2] was less than 300 nM in each case.

In the case of `CCn1cc2ncc(N[C@@H](C)c3cc(NC(=O)c4ccc(OC(F)F)nc4)ccc3C)nc2n1` [Compound 511, (S)-6-(difluoromethoxy)-N-(3-(1-((2-ethyl-2H-pyrazolo[3,4-b]pyrazin-6-yl)amino)ethyl)-4-methylphenyl)nicotinamide], the IC50 in experiment [1] and in experiment [2] was less than 300 nM in each case.

For the compound `CCn1cc2ncc(N[C@@H](C)c3cccc(NC(=O)c4ccc(CN5CC(O)C5)c(Cl)c4)c3)nc2n1` [Compound 487, (S)-3-chloro-N-(3-(1-((2-ethyl-2H-pyrazolo[3,4-b]pyrazin-6-yl)amino)ethyl)phenyl)-4-((3-hydroxyazetidin-1-yl)methyl) benzamide], the IC50 in experiment [1] and in experiment [2] was less than 300 nM throughout.

Consider `Cc1cncc(C(=O)Nc2cccc([C@H](C)Nc3cnc4cnn(-c5ccccc5)c4n3)c2)c1` [Compound 271, (S)-5-methyl-N-(3-(1-((1-phenyl-1H-pyrazolo[3,4-b]pyrazin-6-yl)amino)ethyl)phenyl)nicotinamide], for which the IC50 in experiment [1] and in experiment [2] was less than 300 nM in each case.

Consider `C[C@H](Nc1cnc2cnn(C)c2n1)c1cccc(NC(=O)c2cnn(CCF)c2)c1` [Compound 154, (S)-1-(2-fluoroethyl)-N-(3-(1-((1-methyl-1H-pyrazolo[3,4-b]pyrazin-6-yl)amino)ethyl)phenyl)-1H-pyrazole-4-carboxamide], for which the IC50 in experiment [1] and in experiment [2] was less than 300 nM in each case.

For the compound `CCn1cc2ncc(N[C@@H](C)c3cccc(NC(=O)c4cnc(NCCOC)c(C)c4)c3)nc2n1` [Compound 392, (S)-N-(3-(1-((2-ethyl-2H-pyrazolo[3,4-b]pyrazin-6-yl)amino)ethyl)phenyl)-6-((2-methoxyethyl)amino)-5-methylnicotinamide], the IC50 in experiment [1] is 300 to 1000 nM; in experiment [2], no less than 1000 nM.

For `CCn1cc2ncc(N[C@@H](C)c3cccc(NC(=O)c4cncc(Cl)c4)c3)nc2n1` [Compound 281, (S)-5-chloro-N-(3-(1-((2-ethyl-2H-pyrazolo[3,4-b]pyrazin-6-yl)amino)ethyl)phenyl) nicotinamide], the values for the IC50 in experiment [1] and in experiment [2] were less than 300 nM and 300 to 1000 nM, respectively.

On to `Cc1cncc(C(=O)Nc2cccc([C@H](C)Nc3cncc4c3c(C)nn4-c3cnn(C)c3)c2)c1` [Compound 751, (S)-5-methyl-N-(3-(1-((3-methyl-1-(1-methyl-1H-pyrazol-4-yl)-1H-pyrazolo[3,4-c]pyridin-4-yl)amino)ethyl)phenyl)nicotinamide], for which the IC50 in experiment [1] and in experiment [2] was no less than 1000 nM each time.

For `CCn1cc2ncc(N[C@@H](C)c3cc(NC(=O)Cc4ccc(Cl)c(C)n4)ccc3C)nc2n1` [Compound 670, (S)-2-(5-chloro-6-methylpyridin-2-yl)-N-(3-(1-((2-ethyl-2H-pyrazolo[3,4-b]pyrazin-6-yl)amino)ethyl)-4-methylphenyl)acetamide], the IC50 in experiment [1] and in experiment [2] was less than 300 nM in each case.

`CCn1cc2ncc(N[C@@H](C)c3cccc(NC(=O)c4ccc(C#N)c(C)c4)c3)nc2n1` [Compound 331, (S)-4-cyano-N-(3-(1-((2-ethyl-2H-pyrazolo[3,4-b]pyrazin-6-yl)amino)ethyl)phenyl)-3-methylbenzamide]: the IC50 in experiment [1] and in experiment [2] was less than 300 nM each time.

As for `CCn1cc2ncc(N[C@@H](C)c3cccc(NC(=O)c4ccc(CN5CCCC(F)(F)C5)c(C)c4)c3)nc2n1` [Compound 474, (S)-4-((3,3-difluoropiperidin-1-yl)methyl)-N-(3-(1-((2-ethyl-2H-pyrazolo[3,4-b]pyrazin-6-yl)amino)ethyl)phenyl)-3-methylbenzamide], the IC50 in experiment [1] and in experiment [2] was less than 300 nM throughout.

For the compound `CC(C)c1cc(C(=O)Nc2cccc([C@H](C)Nc3cnc4cnn(C)c4n3)c2)on1` [Compound 145, (S)-3-isopropyl-N-(3-(1-((1-methyl-1H-pyrazolo[3,4-b]pyrazin-6-yl)amino)ethyl)phenyl)isoxazole-5-carboxamide], the IC50 in experiment [1] and in experiment [2] was less than 300 nM in each case.

As to `Cc1cncc(C(=O)Nc2cccc(CNc3cnc4ccccc4n3)c2)c1` [Compound 31, 5-methyl-N-(3-((quinoxalin-2-ylamino)methyl)phenyl) nicotinamide], the IC50 in experiment [1] and in experiment [2] was less than 300 nM each time.

For `CCn1cc2ncc(N[C@@H](C)c3cccc(NC(=O)c4cnn(C(C)C)c4)c3)nc2n1` [Compound 301, (S)-N-(3-(1-((2-ethyl-2H-pyrazolo[3,4-b]pyrazin-6-yl)amino)ethyl)phenyl)-1-isopropyl-1H-pyrazole-4-carboxamide], the IC50 in experiment [1] and in experiment [2] was less than 300 nM throughout.

In the case of `CCn1cc2ncc(N[C@@H](C)c3cc(NC(=O)c4ccc(OC5CCN(C)CC5)c(C(F)(F)F)c4)ccc3F)nc2n1` [Compound 431, (S)-N-(3-(1-((2-ethyl-2H-pyrazolo[3,4-b]pyrazin-6-yl)amino)ethyl)-4-fluorophenyl)-4-((1-methylpiperidin-4-yl)oxy)-3-(trifluoromethyl)benzamide], the IC50 in experiment [1] and in experiment [2] was less than 300 nM in each case.

In the case of `CCn1cnc2ncc(C(=O)Nc3cccc([C@H](C)Nc4cnc5cnn(C)c5n4)c3)cc21` [Compound 265, (S)-1-ethyl-N-(3-(1-((1-methyl-1H-pyrazolo[3,4-b]pyrazin-6-yl)amino)ethyl)phenyl)-1H-imidazo[4,5-b]pyridine-6-carboxamide], the IC50 in experiment [1] and in experiment [2] was less than 300 nM in each case.

Turning to `Cc1cncc(C(=O)Nc2cc(F)cc(C(C)Nc3cnc4cnn(C)c4n3)c2)c1` (stereo not drawn) [Compound 170, N-(3-fluoro-5-(1-((1-methyl-1H-pyrazolo[3,4-b]pyrazin-6-yl)amino)ethyl)phenyl)-5-methylnicotinamide], the IC50 in experiment [1] is less than 300 nM; in experiment [2], 300 to 1000 nM.

Regarding `CCn1cc2ncc(N[C@@H](C)c3cccc(NC(=O)Cc4ccc(F)cn4)c3)nc2n1` [Compound 647, (S)-N-(3-(1-((2-ethyl-2H-pyrazolo[3,4-b]pyrazin-6-yl)amino)ethyl)phenyl)-2-(5-fluoropyridin-2-yl)acetamide], the IC50 in experiment [1] was less than 300 nM; in experiment [2], no less than 1000 nM.

As for `C[C@H](Nc1cnc2cn[nH]c2n1)c1cccc(NC(=O)c2cncc(CO)c2)c1` [Compound 92, (S)-N-(3-(1-((1H-pyrazolo[3,4-b]pyrazin-6-yl)amino)ethyl)phenyl)-5-(hydroxymethyl) nicotinamide], the IC50 is less than 300 nM in experiment [1] and no less than 1000 nM in experiment [2].

Take `Cc1cnn(C(=O)Nc2cccc([C@H](C)Nc3cnc4cnn(C)c4n3)c2)c1` [Compound 168, (S)-4-methyl-N-(3-(1-((1-methyl-1H-pyrazolo[3,4-b]pyrazin-6-yl)amino)ethyl)phenyl)-1H-pyrazole-1-carboxamide]: the IC50 in experiment [1] was less than 300 nM; in experiment [2], no less than 1000 nM.

`CCn1cc2ncc(N[C@@H](C)c3cccc(NC(=O)c4cnc(F)c(C)c4)c3)nc2n1` [Compound 329, (S)-N-(3-(1-((2-ethyl-2H-pyrazolo[3,4-b]pyrazin-6-yl)amino)ethyl)phenyl)-6-fluoro-5-methylnicotinamide]: the IC50 in experiment [1] and in experiment [2] was less than 300 nM in each case.

For `CCn1cc2ncc(N[C@@H](C)c3cc(NC(=O)c4ccc(N5CCN(C)CC5)c(Cl)c4)ccc3F)nc2n1` [Compound 413, (S)-3-chloro-N-(3-(1-((2-ethyl-2H-pyrazolo[3,4-b]pyrazin-6-yl)amino)ethyl)-4-fluorophenyl)-4-(4-methylpiperazin-1-yl) benzamide], the IC50 in experiment [1] and in experiment [2] was less than 300 nM throughout.

On to `CCn1cc2ncc(N[C@@H](C)c3cc(NC(=O)Cc4ccc(C5CC5)nc4)ccc3F)nc2n1` [Compound 658, (S)-2-(6-cyclopropylpyridin-3 - yl)-N-(3-(1-((2-ethyl-2H-pyrazolo[3,4-b]pyrazin-6-yl)amino)ethyl)-4-fluorophenyl) acetamide], for which the values for the IC50 in experiment [1] and in experiment [2] were 300 to 1000 nM and no less than 1000 nM, respectively.

As for `Cc1cncc(C(=O)Nc2cccc([C@H](C)Nc3cnc4cn(-c5cccnc5)nc4n3)c2)c1` [Compound 463, (S)-5-methyl-N-(3-(1-((2-(pyridin-3-yl)-2H-pyrazolo[3,4-b]pyrazin-6-yl)amino)ethyl)phenyl)nicotinamide], the IC50 in experiment [1] and in experiment [2] was less than 300 nM each time.

In the case of `CCn1cc2ncc(N[C@@H](C)c3cccc(NC(=O)c4cnc(C(F)(F)F)s4)c3)nc2n1` [Compound 295, (S)-N-(3-(1-((2-ethyl-2H-pyrazolo[3,4-b]pyrazin-6-yl)amino)ethyl)phenyl)-2-(trifluoromethyl)thiazole-5-carboxamide], the IC50 in experiment [1] and in experiment [2] was less than 300 nM in each case.

Turning to `CCn1cc2ncc(N[C@@H](C)c3cc(NC(=O)c4ccc(OC(F)(F)F)nc4)ccc3F)nc2n1` [Compound 303, (S)-N-(3-(1-((2-ethyl-2H-pyrazolo[3,4-b]pyrazin-6-yl)amino)ethyl)-4-fluorophenyl)-6-(trifluoromethoxy)nicotinamide], the IC50 in experiment [1] and in experiment [2] was less than 300 nM each time.

Take `CCc1ccc(CC(=O)Nc2ccc(C)c([C@H](C)Nc3cnc4cn(CC)nc4n3)c2)nc1` [Compound 713, (S)-N-(3-(1-((2-ethyl-2H-pyrazolo[3,4-b]pyrazin-6-yl)amino)ethyl)-4-methylphenyl)-2-(5-ethylpyridin-2-yl) acetamide]: the IC50 in experiment [1] is less than 300 nM; in experiment [2], 300 to 1000 nM.

For orientation: IC50 means the concentration that inhibits the measured activity by half.
